The values that follow come from patent US10477864B2, “Microbiocidal quinoline (thio)carboxamide derivatives” (priority 2016, dated 2019).

Bounds are passed on as bounds.

The test system of data set [1] is Botryotinia fuckeliana (Botrytis cinerea). As to the kind of experiment: Botryotinia fuckeliana (Botrytis cinerea) / liquid culture (gray mould). The format is cell-based. The conditions noted are these: 72 h, read-out: control of Botryotinia fuckeliana.
The test system of data set [2] is Fusarium culmorum. As to the kind of experiment: microbe, parasite or virus in culture. The format is cell-based. The following applies: read-out: control of Fusarium culmorum.
The subject of data set [3] is Fusarium culmorum. Description: whole plant or invertebrate. The conditions noted are these: in Triticum aestivum, read-out: control of Fusarium culmorum. In kind it is in vivo.
The subject of data set [4] is Glomerella lagenarium (Colletotrichum lagenarium). Description: Glomerella lagenarium (Colletotrichum lagenarium) / liquid culture (anthracnose). In kind it is cell-based. The following applies: Colletotrichum orbiculare; read-out: control of Glomerella lagenarium.
The test system of data set [5] is Monographella nivalis (Microdochium nivale). Description: Monographella nivalis (Microdochium nivale) / liquid culture (foot rot cereals). The following applies: 96 h, read-out: control of Monographella nivalis. In kind it is cell-based.
The subject of data set [6] is Magnaporthe grisea (Pyricularia oryzae). As to the kind of experiment: microbe, parasite or virus in culture. The conditions noted are these: 72 h, read-out: control of Magnaporthe grisea. In kind it is cell-based.
The subject of the next data set is Gaeumannomyces graminis. Description: Gaeumannomyces graminis / liquid culture (take-all of cereals). In kind it is cell-based. The following applies: read-out: control of Gaeumannomyces graminis.

On to `CC(C)C(C)(Cc1ccccc1)NC(=O)c1cnc2c(F)cccc2c1` (stereo not drawn) [Compound E-5, N-(1-benzyl-1,2-dimethyl-propyl)-8-fluoro-quinoline-3-carboxamide], for which the inhibition of growth at 200 ppm (in data set [1]; with Fusarium culmorum [2]; in data set [4]; in data set [5]; in data set [6]) was not below 80% throughout. In the data set on Fusarium culmorum [3], the pest or weed control at 200 ppm is not below 80%.
With `CC(C#N)(Cc1ccc(Cl)cc1)NC(=O)c1cnc2c(F)cccc2c1` (stereo not drawn) [Compound E-7, N-[2-(4-chlorophenyl)-1-cyano-1-methyl-ethyl]-8-fluoro-quinoline-3-carboxamide], the inhibition of growth at 200 ppm (in data set [1]; in the data set on Fusarium culmorum [2]; in the data set with Gaeumannomyces graminis) was not below 80% throughout.
Turning to `CC(C#N)(Cc1ccc(F)cc1F)NC(=O)c1cnc2c(F)cccc2c1` (stereo not drawn) [Compound E-8, N-[1-cyano-2-(2,4-difluorophenyl)-1-methyl-ethyl]-8-fluoro-quinoline-3-carboxamide], the inhibition of growth at 200 ppm (in data set [1]; with Fusarium culmorum [2]; in the data set on Gaeumannomyces graminis) was not below 80% throughout.
Consider `CC(C#N)(Cc1ccccc1)NC(=O)c1cnc2c(F)cccc2c1` (stereo not drawn) [Compound E-10, N-(1-cyano-1-methyl-2-phenyl-ethyl)-8-fluoro-quinoline-3-carboxamide], for which the inhibition of growth at 200 ppm (in data set [1]; in the data set on Fusarium culmorum [2]; in the data set on Gaeumannomyces graminis) was not below 80% throughout. In the data set with Fusarium culmorum [3], the pest or weed control at 200 ppm is not below 80%.
One may read the melting point as the temperature of the solid-liquid transition. `CC(C)(C)C(Cc1ccccc1)NC(=O)c1cnc2c(F)cccc2c1` (stereo not drawn) [Compound E-12, N-(1-benzyl-2,2-dimethyl-propyl)-8-fluoro-quinoline-3-carboxamide] showed a melting point of 163 to 164 °C. The inhibition of growth at 200 ppm in data set [1] was not below 80%. Besides, the inhibition of growth at 200 ppm with Fusarium culmorum [2] was not below 80%. The pest or weed control at 200 ppm in the data set on Fusarium culmorum [3] was not below 80%. Besides, the inhibition of growth at 200 ppm in data set [4] was not below 80%. For the same molecule, in data set [5], the inhibition of growth at 200 ppm is not below 80%. Besides, the inhibition of growth at 200 ppm in data set [6] was not below 80%.
For the molecule `O=C(NC(Cc1ccccc1)CC(F)(F)F)c1cnc2c(F)cccc2c1` (stereo not drawn) [Compound E-30, N-(1-benzyl-3,3,3-trifluoro-propyl)-8-fluoro-quinoline-3-carboxamide], the melting point lay within 140 to 142 °C. Besides, the inhibition of growth at 200 ppm in data set [1] is not below 80%. Further, the inhibition of growth at 200 ppm in the data set on Fusarium culmorum [2] is not below 80%. The pest or weed control at 200 ppm with Fusarium culmorum [3] was not below 80%. The inhibition of growth at 200 ppm in data set [4] is not below 80%. Further, the inhibition of growth at 200 ppm in data set [5] is not below 80%. Also, the inhibition of growth at 200 ppm in data set [6] was not below 80%.
The molecule `Cc1ccc(CC(C)(CC(C)C)NC(=O)c2cnc3c(F)cccc3c2)cc1` (stereo not drawn) [Compound E-31, N-[1,3-dimethyl-1-(p-tolylmethyl)butyl]-8-fluoro-quinoline-3-carboxamide] showed a melting point of 116 to 118 °C. Besides, in data set [1], the inhibition of growth at 200 ppm is not below 80%. Besides, the inhibition of growth at 200 ppm with Fusarium culmorum [2] is not below 80%. The inhibition of growth at 200 ppm in data set [4] was not below 80%. Further, the inhibition of growth at 200 ppm in data set [5] was not below 80%. In addition, the inhibition of growth at 200 ppm in data set [6] is not below 80%.
Molecule `Cc1cccc(CC(C)(CC(C)C)NC(=O)c2cnc3c(F)cccc3c2)c1` (stereo not drawn) [Compound E-33, N-[1,3-dimethyl-1-(m-tolylmethyl)butyl]-8-fluoro-quinoline-3-carboxamide] displayed a melting point of 94 to 96 °C. For the same molecule, the inhibition of growth at 200 ppm in data set [1] was not below 80%. Also, the inhibition of growth at 200 ppm in the data set with Fusarium culmorum [2] was not below 80%. Further, the inhibition of growth at 200 ppm in data set [4] was not below 80%. For the same molecule, the inhibition of growth at 200 ppm in data set [5] is not below 80%. Also, in data set [6], the inhibition of growth at 200 ppm is not below 80%.
On to `CC(Cc1ccccc1)(CC1CC1)NC(=O)c1cnc2c(F)cccc2c1` (stereo not drawn) [Compound E-49, N-(1-benzyl-2-cyclopropyl-1-methyl-ethyl)-8-fluoro-quinoline-3-carboxamide], for which the inhibition of growth at 200 ppm (in data set [1]; in the data set with Fusarium culmorum [2]; in data set [4]; in data set [5]; in data set [6]) was not below 80% each time. In addition, the pest or weed control at 200 ppm in the data set with Fusarium culmorum [3] is not below 80%.
As for `CC(C)CC(C)(NC(=O)c1cnc2c(F)cccc2c1)C(F)(F)c1ccccc1` (stereo not drawn) [Compound E-54, N-[1-[difluoro(phenyl)methyl]-1,3-dimethyl-butyl]-8-fluoro-quinoline-3-carboxamide], the inhibition of growth at 200 ppm (in data set [1]; with Fusarium culmorum [2]; in data set [4]; in data set [5]; in data set [6]) was not below 80% each time.
Turning to `CC(C)(F)CC(C)(Cc1ccccc1)NC(=O)c1cnc2c(F)cccc2c1` (stereo not drawn) [Compound E-56, N-(1-benzyl-3-fluoro-1,3-dimethyl-butyl)-8-fluoro-quinoline-3-carboxamide], the inhibition of growth at 200 ppm (in data set [1]; in the data set with Fusarium culmorum [2]; in data set [4]; in data set [5]; in data set [6]) was not below 80% in each case. Besides, the pest or weed control at 200 ppm in the data set on Fusarium culmorum [3] is not below 80%.
Turning to `CC(C)(F)CC(C)(Cc1ccccc1)NC(=O)c1cnc2ccccc2c1` (stereo not drawn) [Compound E-57, N-(1-benzyl-3-fluoro-1,3-dimethyl-butyl)quinoline-3-carboxamide], the inhibition of growth at 200 ppm (in data set [1]; in the data set on Fusarium culmorum [2]; in data set [4]; in data set [5]; in data set [6]) was not below 80% throughout. Also, the pest or weed control at 200 ppm with Fusarium culmorum [3] is not below 80%.
As to `CC(C)CC(C)(NC(=O)c1cnc2ccccc2c1)C(F)(F)c1ccccc1` (stereo not drawn) [Compound E-59, N-[1-[difluoro(phenyl)methyl]-1,3-dimethyl-butyl]quinoline-3-carboxamide], the inhibition of growth at 200 ppm (in data set [1]; in the data set with Fusarium culmorum [2]; in data set [5]; in data set [6]) was not below 80% each time. Moreover, in the data set on Fusarium culmorum [3], the pest or weed control at 200 ppm is not below 80%.
`CC(Cc1ccccc1)(CC(F)(F)F)NC(=O)c1cnc2c(Cl)cccc2c1` (stereo not drawn) [Compound E-60, N-(1-benzyl-3,3,3-trifluoro-1-methyl-propyl)-8-chloro-quinoline-3-carboxamide] registered a melting point of 141 to 144 °C. For the same molecule, the inhibition of growth at 200 ppm in data set [1] was not below 80%. In the data set with Fusarium culmorum [2], the inhibition of growth at 200 ppm is not below 80%. Further, the pest or weed control at 200 ppm in the data set with Fusarium culmorum [3] is not below 80%. In addition, the inhibition of growth at 200 ppm in data set [4] is not below 80%. Moreover, the inhibition of growth at 200 ppm in data set [5] is not below 80%. In addition, the inhibition of growth at 200 ppm in data set [6] is not below 80%.
`CC(Cc1ccccc1)(CC(F)(F)F)NC(=O)c1cnc2cc(Cl)ccc2c1` (stereo not drawn) [Compound E-69, N-(1-benzyl-3,3,3-trifluoro-1-methyl-propyl)-7-chloro-quinoline-3-carboxamide] gave a melting point of 174 to 176 °C. In addition, in data set [1], the inhibition of growth at 200 ppm was not below 80%. In addition, in the data set on Fusarium culmorum [2], the inhibition of growth at 200 ppm is not below 80%. For the same molecule, in the data set on Fusarium culmorum [3], the pest or weed control at 200 ppm was not below 80%. For the same molecule, the inhibition of growth at 200 ppm in data set [4] is not below 80%. The inhibition of growth at 200 ppm in data set [6] was not below 80%.
As for `CC(C)C[C@](C)(Cc1ccccc1Cl)NC(=O)c1cnc2c(F)cccc2c1` [Compound F-7, N-[(1R)-1-[(2-chlorophenyl)methyl]-1,3-dimethyl-butyl]-8-fluoro-quinoline-3-carboxamide], the inhibition of growth at 200 ppm (in data set [1]; with Fusarium culmorum [2]; in data set [4]; with Gaeumannomyces graminis) was not below 80% each time.
As for `CC(C)C[C@@](C)(Cc1ccccc1Cl)NC(=O)c1cnc2c(F)cccc2c1` [Compound F-8, N-[(1S)-1-[(2-chlorophenyl)methyl]-1,3-dimethyl-butyl]-8-fluoro-quinoline-3-carboxamide], the inhibition of growth at 200 ppm (in data set [1]; with Fusarium culmorum [2]; in data set [4]; in the data set with Gaeumannomyces graminis; in data set [5]) was not below 80% in each case.
As to `C=CC[C@](C)(Cc1ccccc1)NC(=O)c1cnc2c(F)cccc2c1` [Compound F-16, N-[(1R)-1-benzyl-1-methyl-but-3-enyl]-8-fluoro-quinoline-3-carboxamide], the inhibition of growth at 200 ppm (in data set [1]; in the data set on Fusarium culmorum [2]; in data set [4]; in the data set with Gaeumannomyces graminis) was not below 80% throughout. For the same molecule, the pest or weed control at 200 ppm with Fusarium culmorum [3] was not below 80%.
For the molecule `CC(C)(C)C[C@](C)(Cc1ccccc1)NC(=O)c1cnc2c(F)cccc2c1` [Compound F-17, N-[(1R)-1-benzyl-1,3,3-trimethyl-butyl]-8-fluoro-quinoline-3-carboxamide], the inhibition of growth at 200 ppm (in data set [1]; in the data set on Fusarium culmorum [2]; in data set [4]; in the data set with Gaeumannomyces graminis) was not below 80% each time. For the same molecule, the pest or weed control at 200 ppm in the data set on Fusarium culmorum [3] was not below 80%.
For the molecule `CC(F)(F)C[C@](C)(Cc1ccccc1)NC(=O)c1cnc2c(F)cccc2c1` [Compound F-39, N-[(1S)-1-benzyl-3,3-difluoro-1-methyl-butyl]-8-fluoro-quinoline-3-carboxamide], the inhibition of growth at 200 ppm (in data set [1]; in the data set on Fusarium culmorum [2]; in data set [4]; in data set [5]; in data set [6]) was not below 80% throughout. Further, the pest or weed control at 200 ppm in the data set with Fusarium culmorum [3] is not below 80%.
